Data published in patent US20240148664A1, “LIPID AND COMPOSITION” (SOGO PHARMACEUTICAL CO., LTD., priority 2021, published 2024).

Assays:
[1] = Measurement of particle size, polydispersity index and zeta potential of lipid nanoparticle (Zetasizer); format: physicochemical
How it was run: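 Dialysed LNP solution diluted in ultrapure water; particle size taken as Z-average and PDI by dynamic light scattering (Zetasizer). Zeta potential measured with pH 7.4 Tris-HCl as diluent.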

[2] = system: HT1080-EGFP (human/fibrosarcoma) cells; experiment: Evaluation of knockdown effect (GFP assay), Cell experiment 1; format: cell-based; settings: lipid nanoparticle containing siRNA against EGFP; fluorescence intensity with control cells without lipid nanoparticle set at 100
Experimental: A cell experiment was carried out by using HT1080-EGFP (human/fibrosarcoma) cells in order to evaluate lipid nanoparticles encapsulating an siRNA produced by using the lipids of the Examples and the Comparative Examples. These cells are cells provided with a green fluorescent protein gene (EGFP). The expression of EGFP can be easily confirmed by measuring the fluorescence intensity of a solution in which the cells are lysed, and thus by acting lipid nanoparticles encapsulating an siRNA that suppresses the expression of EGFP and observing any decrease in fluorescence intensity, the performance of the lipid nanoparticles used can be evaluated. Hereinafter, the procedure of the cell experiment will be shown.
A. Provision of Cells • (i) A liquid medium (DMEM/Ham's F12, FBS+, P/S+) (FBS: fetal bovine serum, P/S: antibiotic) was taken out from a refrigerator and temperature-controlled in an incubator set at 37° C. • (ii) A cryotube containing the cells was taken out from a −80° C. freezer and thawed at once in an incubator set at 37° C. • (iii) A stock solution of the thawed cells was collected in a capped test tube. • (iv) The tube containing the cells was washed with the liquid medium, and the wash was also collected in the test tube. • (v) The tube was subjected to a centrifuge to precipitate the cells. • (vi) The supernatant was aspirated, and the liquid medium was added and gently tapped to disperse the cells. • (vii) A small amount of the cells-dispersed liquid medium was collected, and the number of cells was observed and counted under a microscope. • (viii) The cells were seeded in a 24-well plate such that the number of cells was 2×10^4 cells per well. For the plate for an LDH assay described later, the cells were seeded in a 96-well plate such that the number of cells was 4×10^3 cells per well. • (ix) The 24-well plate or the 96-well plate was placed in an incubator, and the cells were cultured for 24 hours under conditions of 37° C. and 5% CO2.
The produced lipid nanoparticles were introduced into cells. • (i) Fetal bovine serum (FBS) was added to a liquid medium (FBS-, P/S-) temperature-controlled as in (i) of A above, in such a way as to reach 10%. • (ii) A 24-well plate was taken out from an incubator, and the liquid medium supernatant in the 24-well plate was aspirated and washed with phosphate buffered saline (PBS). • (iii) 400 μL of the liquid medium produced in (i) above was added to the washed 24-well plate. In addition, 100 μL of an LNP solution having an adjusted concentration was added. • (iv) The 24-well plate was placed in the incubator, and the cells were cultured (for 24 hours). • (v) After 24 hours, the liquid medium supernatant in the 24-well plate was aspirated, and 500 μL of a liquid medium containing 10% FBS (FBS+/P/S+) was added. • (vi) The 24-well plate was placed in the incubator, and the cells were cultured for 24 hours under conditions of 37° C. and 5% CO2.
By carrying out a GFP assay, the EGFP expression level in cells was measured to evaluate the effect of knocking down the green fluorescent protein gene (EGFP) by lipid nanoparticles. • (i) A 24-well plate was taken out from an incubator and washed with PBS. • (ii) A 1% octylglucoside solution to which a protease inhibitor was added was added in order to disrupt cells. Stirring with a pipette lysed the cells. • (iii) The cell lysate was transferred to an Eppendorf tube and subjected to a centrifuge. • (iv) 150 μL of the supernatant was collected and added to a plate for fluorescence measurement. • (v) The fluorescence intensity was measured under conditions of an excitation wavelength of 485 nm and a fluorescence wavelength of 535 nm with a plate reader (manufactured by TECAN, Infinite M200). The fluorescence intensity was calculated with the fluorescence intensity of control cells to which no lipid nanoparticle was added set at 100.

[3] = siRNA / mRNA encapsulation rate of lipid nanoparticle (RiboGreen); format: physicochemical
How it was run: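 LNP solution was read with RiboGreen (ex 480/em 520 nm) with and without 1% Triton X-100 disruption (2 pmol siRNA or mRNA per 40 μL). Encapsulation (%) = (a−b)/a×100, a = total and b = free RNA signal, each a blank-subtracted mean of three readings.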

[4] = lipid nanoparticle containing siRNA, main lipid/DPPC/cholesterol=45/10/45, Z-average in ultrapure water
[5] = lipid nanoparticle containing siRNA, main lipid/DPPC/cholesterol=45/10/45, ultrapure water
[6] = lipid nanoparticle containing siRNA, pH 7.4 Tris-HCl
[7] = siRNA encapsulation rate of lipid nanoparticle
[8] = mRNA lipid nanoparticle for in vivo experiment, PEG-modified lipid (PEG2000-DMG 1.5 mol %) present
[9] = mRNA lipid nanoparticle for in vivo experiment, PEG-modified lipid absent

CCCCCCCC/C=C\CCCCCCCCC(CCCCCCC/C=C\CCCCCCCC)OC(=O)C(CC(=O)O)NC(=N)N (stereo not shown) [Comparative Example 2, 3-guanidino-4-(((9Z,27Z)-hexatriaconta-9,27-dien-18-yl)oxy)-4-oxobutanoic acid, reference compound]
Particle size (nm) [1, 4]: 117.1 nm
PDI [1, 5]: 0.085
Zeta potential (mV) [1, 6]: −7.75 mV
GFP Assay [2]: 97
Encapsulation rate (%) [3, 7]: 95%

CCCCCCCC/C=C\CCCCCCCCC(CCCCCCC/C=C\CCCCCCCC)OC(=O)C(CCC(=O)O)NC(=N)N (stereo not shown) [Comparative Example 3, 4-guanidino-5-(((9Z,27Z)-hexatriaconta-9,27-dien-18-yl)oxy)-5-oxopentanoic acid, reference compound]
Particle size (nm) [1, 4]: 137.0 nm
PDI [1, 5]: 0.329
Zeta potential (mV) [1, 6]: −7.66 mV
GFP Assay [2]: 102
Encapsulation rate (%) [3, 7]: 95%

CCCCCCCC/C=C\CCCCCCCCC(CCCCCCC/C=C\CCCCCCCC)OC(=O)C(CC(=O)O)NC(=O)C(N)CCCNC(=N)N (stereo not shown) [Example 1, 3-(2-amino-5-guanidinopentanamido)-4-(((9Z,27Z)-hexatriaconta-9,27-dien-18-yl)oxy)-4-oxobutanoic acid]
Particle size (nm) [1, 4]: 116.5 nm
PDI [1, 5]: 0.169
Zeta potential (mV) [1, 6]: 6.98 mV
GFP Assay [2]: 28
Encapsulation rate (%) [3, 7]: 99%

CCCCCCCC/C=C\CCCCCCCCC(CCCCCCC/C=C\CCCCCCCC)OC(=O)C(CCC(=O)O)NC(=O)C(N)CCCNC(=N)N (stereo not shown) [Example 2, 4-(2-amino-5-guanidinopentanamido)-5-(((9Z,27Z)-hexatriaconta-9,27-dien-18-yl)oxy)-5-oxopentanoic acid]
Particle size (nm) [1, 4]: 119.7 nm
PDI [1, 5]: 0.099
Zeta potential (mV) [1, 6]: 9.59 mV
PDI [1, 8]: 0.19
Particle size (nm) [1, 8]: 92.8 nm
Zeta potential (mV) [1, 8]: 16.71 mV
PDI [1, 9]: 0.10
Particle size (nm) [1, 9]: 119.7 nm
Zeta potential (mV) [1, 9]: 3.92 mV
GFP Assay [2]: 24
Encapsulation rate (%) [3, 8]: 93.2%
Encapsulation rate (%) [3, 9]: 91.3%
Encapsulation rate (%) [3, 7]: 99%

CCCCCCCC/C=C\CCCCCCCCC(CCCCCCC/C=C\CCCCCCCC)OC(=O)C(CO)NC(=O)C(N)CCCNC(=N)N [Example 4, (9Z,27Z)-hexatriaconta-9,27-dien-18-yl (2S)-2-((S)-2-amino-5-guanidinopentanamido)-3-hydroxypropionate]
Particle size (nm) [1, 4]: 103.6 nm
PDI [1, 5]: 0.101
Zeta potential (mV) [1, 6]: 15.7 mV
GFP Assay [2]: 7
Encapsulation rate (%) [3, 7]: 100%

CCCCCCCC/C=C\CCCCCCCCC(CCCCCCC/C=C\CCCCCCCC)OC(=O)C(NC(=O)C(N)CCCNC(=N)N)C(C)O [Example 5, (9Z,27Z)-hexatriaconta-9,27-dien-18-yl (2S)-2-((S)-2-amino-5-guanidinopentanamido)-3-hydroxybutanoate]
Particle size (nm) [1, 4]: 109.2 nm
PDI [1, 5]: 0.084
Zeta potential (mV) [1, 6]: 15.2 mV
GFP Assay [2]: 22
Encapsulation rate (%) [3, 7]: 100%

CCCCCCCC/C=C\CCCCCCCCC(CCCCCCC/C=C\CCCCCCCC)OC(=O)[C@H](CCSC)NC(=O)[C@@H](N)CCCNC(=N)N (stereo partly shown) [Example 6, (9Z,27Z)-hexatriaconta-9,27-dien-18-yl arginylmethioninate]
Particle size (nm) [1, 4]: 125.9 nm
PDI [1, 5]: 0.118
Zeta potential (mV) [1, 6]: 21.9 mV
GFP Assay [2]: 40
Encapsulation rate (%) [3, 7]: 100%
